According to patent publication US20120053165A1, “Novel Phenyl Imidazoles and Phenyl Triazoles As Gamma-Secretase Modulators” (Pfizer Inc., priority 2009, published 2012):
Counter-ions that a name gives are not always drawn.

These molecules were tested on production of amyloid beta protein Aβ(1-42) in human WT-APP overexpressing CHO cells. Conditions: Homo sapiens, CHO, read-out: Aβ 42 IC50.
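Also: Aβ(1-42) released into conditioned medium captured by ELISA after roughly 24 h compound exposure, vehicle and inhibitor controls defining maximal and minimal inhibition.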

In order of falling IC50:
1. CCOc1cccc(CCNC(=O)c2ccc(-n3cnc(C)c3)c(OC)c2)c1 [Example 112, N-[2-(3-ethoxyphenyl)ethyl]-3-methoxy-4-(4-methyl-1H-imidazol-1-yl)benzamide]  0.765 µM
2. CCOc1ccccc1CCNC(=O)c1ccc(-n2cnc(C)c2)c(OC)c1 [Example 104, N-[2-(2-ethoxyphenyl)ethyl]-3-methoxy-4-(4-methyl-1H-imidazol-1-yl)benzamide]  0.698 µM

Same assay, conditions: Homo sapiens, CHO, read-out: Aβ 42 IC50, Geometric mean of 2-8 determinations; human WT-APP overexpressing CHO cells

In order of falling IC50:
1. COc1cc(C(=O)NCc2cc(-c3ccc(F)cc3)on2)ccc1-n1cnc(C)c1 [Example 116, N-{[5-(4-fluorophenyl)isoxazol-3-yl]methyl}-3-methoxy-4-(4-methyl-1H-imidazol-1-yl)benzamide]  0.815 µM
2. COc1cc(C(=O)NC(c2ccc(F)cc2)c2nc3ccccc3n2C)ccc1-n1cnc(C)c1 (stereo not drawn) [Example 107, N-[(4-fluorophenyl)(1-methyl-1H-benzimidazol-2-yl)methyl]-3-methoxy-4-(4-methyl-1H-imidazol-1-yl)benzamide]  0.735 µM
3. COc1cc(C(=O)NCC2(c3ccccc3)CC2)ccc1-n1cnc(C)c1 [Example 101, 3-methoxy-4-(4-methyl-1H-imidazol-1-yl)-N-[(1-phenylcyclopropyl)methyl]benzamide]  0.686 µM
4. COc1cc(C(=O)N2CCC(c3cccc(Cl)c3)C2)ccc1-n1cnc(C)c1 (stereo not drawn) [Example 98, 1-(4-{[3-(3-chlorophenyl)pyrrolidin-1-yl]carbonyl}-2-methoxyphenyl)-4-methyl-1H-imidazole]  0.642 µM
5. COc1cc(C(=O)N2CCC(Oc3ccccc3C(F)(F)F)CC2)ccc1-n1cnc(C)c1 [Example 91, 1-[3-methoxy-4-(4-methyl-1H-imidazol-1-yl)benzoyl]-4-[2-(trifluoromethyl)phenoxy]piperidine]  0.588 µM
6. COc1cc(C(=O)NCc2cc3cc(F)ccc3[nH]2)ccc1-n1cnc(C)c1 [Example 89, N-[(5-fluoro-1H-indol-2-yl)methyl]-3-methoxy-4-(4-methyl-1H-imidazol-1-yl)benzamide]  0.57 µM
7. COc1cc(C(=O)NCc2nc3cc(Cl)c(C)cc3o2)ccc1-n1cnc(C)c1 [Example 86, N-[(5-chloro-6-methyl-1,3-benzoxazol-2-yl)methyl]-3-methoxy-4-(4-methyl-1H-imidazol-1-yl)benzamide]  0.544 µM
8. COc1cc(C(=O)NC(c2ccc(F)cc2)c2cccs2)ccc1-n1cnc(C)c1 (stereo not drawn) [Example 41, N-[(4-fluoro-phenyl)(2-thienyl)methyl]-3-methoxy-4-(4-methyl-1H-imidazol-1-yl)benzamide, trifluoroacetic acid salt]  0.328 µM
9. COc1cc(C(=O)Nc2[nH]nc(C)c2-c2cccc(C(F)(F)F)c2)ccc1-n1cnc(C)c1 [Example 10, 3-methoxy-4-(4-methyl-1H-imidazol-1-yl)-N-{3-methyl-4-[3-(trifluoro-methyl)phenyl]-1H-pyrazol-5-yl}benzamide]  0.245 µM
10. COc1cc(C(=O)N2CC[C@@H](Oc3ccccc3C(F)(F)F)C2)ccc1-n1cnc(C)c1 [Example 11, 1-[2-methoxy-4-({(3R)-3-[2-(trifluoromethyl)phenoxy]pyrrolidin-1-yl}carbonyl)phenyl]-4-methyl-1H-imidazole]  0.096 µM

Same assay, conditions: Homo sapiens, CHO, read-out: Aβ 42 IC50, Geometric mean of at least 2 determinations; human WT-APP overexpressing CHO cells

In order of falling IC50:
1. CCc1ccccc1OCC1CN(C(=O)c2ccc(-n3cnc(C)c3)c(OC)c2)C1 [Example 140, 1-[4-({3-[(2-ethylphenoxy)methyl]azetidin-1-yl}carbonyl)-2-methoxyphenyl]-4-methyl-1H-imidazole trifluoroacetate salt]  0.593 µM
2. COc1cc(C(=O)N2CC(COc3ccc(F)c(C)c3Cl)C2)ccc1-n1cnc(C)c1 [Example 136, 1-[4-({3-[(2-chloro-4-fluoro-3-methyl-phenoxy)methyl]azetidin-1-yl}carbonyl)-2-methoxyphenyl]-4-methyl-1H-imidazole trifluoroacetate salt]  0.311 µM

Same assay, conditions: Homo sapiens, CHO, read-out: Aβ 42 IC50, Single IC50 determination; human WT-APP overexpressing CHO cells

In order of rising IC50:
1. COc1cc(C(=O)N2CC(Oc3cc(Cl)ccc3Cl)C2)ccc1-n1cnc(C)c1 [Example 108, 1-(4-{[3-(2,5-dichlorophenoxy)azetidin-1-yl]carbonyl}-2-methoxyphenyl)-4-methyl-1H-imidazole]  0.738 µM
2. COc1ccc2c(c1)CCC2NC(=O)c1ccc(-n2cnc(C)c2)c(OC)c1 (stereo not drawn) [Example 120, 3-methoxy-N-(5-methoxy-2,3-dihydro-1H-inden-1-yl)-4-(4-methyl-1H-imidazol-1-yl)benzamide]  0.878 µM

Same assay, conditions: Homo sapiens, CHO, read-out: GM Aβ 42B IC50, Geometric Mean of 2-8 Determinations; human WT-APP overexpressing CHO cells

Work on `Cc1cn(-c2ccc(C(=O)NCCc3cccc(Cl)c3)cc2F)cn1` [Example 8, N-[2-(3-chlorophenyl)ethyl]-3-fluoro-4-(4-methyl-1H-imidazol-1-yl)benzamide] yielded an IC50 of 0.96 µM.

Same assay, conditions: read-out: Aβ 42 IC50; Geometric mean of 2-8 determinations; human WT-APP overexpressing CHO cells

In order of rising IC50:
1. COc1cc(C(=O)NCC2(c3ccc(C(F)(F)F)cc3)CCCC2)ccc1-n1cnc(C)c1 [Example 33, 3-methoxy-4-(4-methyl-1H-imidazol-1-yl)-N-({1-[4-(trifluoro-methyl)phenyl]cyclopentyl}methyl) benzamide, formic acid salt]  0.139 µM
2. COc1cc(C(=O)N(Cc2cc(C(C)C)ccc2C)C2CC2)ccc1-n1cnc(C)c1 [Example 125, N-cyclopropyl-N-(5-isopropyl-2-methylbenzyl)-3-methoxy-4-(4-methyl-1H-imidazol-1-yl) benzamide]  0.185 µM
3. COc1cc(C(=O)NCCc2c[nH]c3ccc(Cl)cc23)ccc1-n1cnc(C)c1 [Example 25, N-[2-(5-chloro-1H-indol-3-yl)ethyl]-3-methoxy-4-(4-methyl-1H-imidazol-1-yl) benzamide]  0.195 µM
4. COc1cc(C(=O)NCC2(c3ccc(Cl)cc3)CCCC2)ccc1-n1cnc(C)c1 [Example 36, N-{[1-(4-chlorophenyl)cyclopentyl]methyl}-3-methoxy-4-(4-methyl-1H-imidazol-1-yl) benzamide]  0.209 µM
5. COc1cc(C(=O)NCC2(c3cccc(C(F)(F)F)c3)CCC2)ccc1-n1cnc(C)c1 [Example 31, 3-methoxy-4-(4-methyl-1H-imidazol-1-yl)-N-({1-[3-(tri-fluoromethyl)phenyl]cyclobutyl}methyl) benzamide]  0.298 µM
6. COc1cc(C(=O)NCc2csc(-c3ccc(Cl)cc3)n2)ccc1-n1cnc(C)c1 [Example 53, N-{[2-(4-chlorophenyl)-1,3-thiazol-4-yl]methyl}-3-methoxy-4-(4-methyl-1H-imidazol-1-yl) benzamide]  0.306 µM
7. COc1cc(C(=O)NCc2cccc(C(=O)c3ccccc3)c2)ccc1-n1cnc(C)c1 [Example 42, N-(3-benzoyl-benzyl)-3-methoxy-4-(4-methyl-1H-imidazol-1-yl) benzamide]  0.316 µM
8. COc1cccc(C2(CNC(=O)c3ccc(-n4cnc(C)c4)c(OC)c3)CCCC2)c1 [Example 65, 3-methoxy-N-{[1-(3-methoxyphenyl)cyclopentyl]methyl}-4-(4-methyl-1H-imidazol-1-yl) benzamide]  0.41 µM
9. COc1cc(C(=O)NCc2cccc(C(F)(F)F)c2F)ccc1-n1cnc(C)c1 [Example 77, N-[2-fluoro-3-(trifluoromethyl)benzyl]-3-methoxy-4-(4-methyl-1H-imidazol-1-yl) benzamide]  0.481 µM
10. COc1cc(C(=O)N[C@@H](C)c2cccc(-c3ccccc3)c2)ccc1-n1cnc(C)c1 [Example 126, N-[(1S)-1-biphenyl-3-ylethyl]-3-methoxy-4-(4-methyl-1H-imidazol-1-yl) benzamide]  0.492 µM
11. COc1cc(C(=O)NCCOc2ccccc2Cl)ccc1-n1cnc(C)c1 [Example 90, N-[2-(2-chlorophenoxy)ethyl]-3-methoxy-4-(4-methyl-1H-imidazol-1-yl) benzamide]  0.573 µM
12. COc1cc(C(=O)NCc2nc(-c3ccc(C(F)(F)F)c(F)c3)no2)ccc1-n1cnc(C)c1 [Example 94, N-({3-[3-fluoro-4-(trifluoromethyl)phenyl]-1,2,4-oxadiazol-5-yl}methyl)-3-methoxy-4-(4-methyl-1H-imidazol-1-yl) benzamide]  0.61 µM
13. COc1cc(C(=O)NC(C)c2ccc3[nH]ccc3c2)ccc1-n1cnc(C)c1 (stereo not drawn) [Example 99, N-[1-(1H-indol-5-yl)ethyl]-3-methoxy-4-(4-methyl-1H-imidazol-1-yl) benzamide]  0.665 µM
14. COc1cc(C(=O)NCc2nc(-c3ccc(Cl)cc3)no2)ccc1-n1cnc(C)c1 [Example 45, N-{[3-(4-chlorophenyl)-1,2,4-oxadiazol-5-yl]methyl}-3-methoxy-4-(4-methyl-1H-imidazol-1-yl) benzamide, formic acid salt]  0.73 µM
15. COc1cc(C(=O)NC(C)(C)c2ccc(F)c(F)c2)ccc1-n1cnc(C)c1 [Example 26, N-[1-(3,4-difluoro-phenyl)-1-methylethyl]-3-methoxy-4-(4-methyl-1H-imidazol-1-yl) benzamide]  0.787 µM
16. COc1cc(C(=O)NCCc2c(C)[nH]c3ccccc23)ccc1-n1cnc(C)c1 [Example 117, 3-methoxy-4-(4-methyl-1H-imidazol-1-yl)-N-[2-(2-methyl-1H-indol-3-yl)ethyl] benzamide]  0.828 µM
17. COc1cc(C(=O)NCCc2nc3cc(C)ccc3o2)ccc1-n1cnc(C)c1 [Example 121, 3-methoxy-N-[2-(5-methyl-1,3-benzoxazol-2-yl)ethyl]-4-(4-methyl-1H-imidazol-1-yl) benzamide]  0.88 µM

Same assay, conditions: read-out: Aβ 42 IC50; Geometric mean of 26 determinations; human WT-APP overexpressing CHO cells

Work on `COc1cc(C(=O)NCC2(c3ccc(F)cc3)CCC2)ccc1-n1cnc(C)c1` [Example 13, N-{[1-(4-fluorophenyl)cyclobutyl]methyl}-3-methoxy-4-(4-methyl-1H-imidazol-1-yl) benzamide] yielded an IC50 of 0.261 µM.

Same assay, conditions: read-out: Aβ 42 IC50; Geometric mean of at least 2 determinations; human WT-APP overexpressing CHO cells

Work on “1-[4-({3-[(chloro- 5-methylphenoxy) methyl]azetidin- 1-yl}carbonyl)-2- methoxyphenyl]- 4-methyl-1H- imidazole trifluoroacetate salt [Example 139]” yielded an IC50 of 0.557 µM.
